Laboratory results as given in patent US20070167466A1, “"Pyrazolo [4,3-d]pyrimidines, processes for their preparation and methods of use"” (priority 2003, published 2007).
pIC50: −log10 of the molar value. Where two headings read alike, the source gives them in different places.

Assays:
[1] = target: T1, CDK1 (p34^cdc2, cyclin B) (Homo sapiens, UniProt P06493); test: CDK inhibition assay, p34^cdc2 kinase, histone H1 phosphorylation; format: biochemical; conditions: 15 μM ATP, histone H1, 30° C.
T1 construct: made in house; host or cells: Sf9 insect cells (baculovirus co-infection)
Experimental: The controls contain suitable dilutions of DMSO.
2-glycerolphosphate, 1 mM NaF, 1 mM DTT

[2] = tested on: K562 (human chronic myeloblastic leukemia); test: In vitro cytotoxic activity, Calcein AM, three days; format: cell-based; conditions: read-out: K-562 IC50
Experimental: (§1) We have been using the following cell lines: HELA (human cervical carcinoma), MCF7 (human breast adenocarcinoma), NIH 3T3 (mouse fibroblasts), HOS (human osteogenic sarcoma), HL 60 (human promyelocytic leukemia), G 361 (human malignant melanoma), K562 (human chronic myeloblastic leukemia), CEM (human lymphoblastoid leukaemia). Tested drugs were added to the cell cultures in six different concentration and kept at 37° C. and 5% CO2 for three days. All cell lines were grown in DMBM medium (Gibco BRL) supplemented with 10% (v/v) fetal bovine serum and L-glutamine and maintained at 37° C. in a humidified atmosphere with 5% CO2. 10^4 cells were seeded into each well of 96 well plate, allowed to stabilize for at least 2 h and then tested compounds were added at various concentrations ranging from 200 to 0.2 μM in triplicates. Three days after drug addition Calcein AM solution (Molecular Probes) was added and let to enter the cells for 1 hour. Fluorescence of viable cells was quantified employing Fluoroskan Ascent (Microsystems).

[3] = tested on: MCF7 (human breast adenocarcinoma); test: as above; format: cell-based
Experimental: as §1

[4] = target: CDK2 (p33^cdk2, cyclin E) (Homo sapiens, UniProt P24941); test: CDK inhibition assay, p33^cdk2 kinase, histone H1 phosphorylation;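 further: Baculovirus-expressed kinase/cyclin complex from Sf9 cell extract, 10 min at 30 °C, phosphoproteins separated by SDS gel and quantified by image analysis, activity relative to DMSO control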
Experimental: Cyclin-dependent kinases (p34^cdc2, p33^cdk2) and cyclins (cyclin B, E) are produced in Sf9 insect cells coinfected with appropriate baculoviral constructs. The cells are harvested 68-72 hrs post infection in lysis buffer for 30 min on ice and the soluble fraction is recovered by centrifugation at 14.000 g for 10 min. The protein extract is stored at −80° C.
Lysis buffer: 50mM Tris pH 7.4, 150mM NaCl, 5 mM EDTA, 20 mM NaF, 1% Tween, 1 mM DTT, 0.1 mM PMSF, leupeptine, aprotonine.
To carry out experiments on kinetics under linear conditions, the final point test system for kinase activity measurement is used. The kinase is added to reaction mixture in such a way as to obtain linear activity with respect to the concentration of enzyme and with respect to time.
Kinase activity is determined at 30° C. in the kinase buffer.
Tested compounds are usually dissolved to 100 mM solutions in DMSO, final concentration of DMSO in reaction mixture never exceeds 1%. The controls contain suitable dilutions of DMSO.
After 10 min, addition 3×SDS sample buffer stops the incubations. Phosphorylated proteins are separated electrophoretically using 10% SDS polyacrylamide gel. The measurement of kinase activity is done using digital image analysis.
The kinase activity is expressed as a percentage of maximum activity, the apparent inhibition constants are determined by graphic analysis.
Kinase buffer: 50 mM Hepes pH 7.4, 10 mM MgCl2, 5 mM EGTA, 10 mM

T1 sequence (P06493 whole entry, species assumed): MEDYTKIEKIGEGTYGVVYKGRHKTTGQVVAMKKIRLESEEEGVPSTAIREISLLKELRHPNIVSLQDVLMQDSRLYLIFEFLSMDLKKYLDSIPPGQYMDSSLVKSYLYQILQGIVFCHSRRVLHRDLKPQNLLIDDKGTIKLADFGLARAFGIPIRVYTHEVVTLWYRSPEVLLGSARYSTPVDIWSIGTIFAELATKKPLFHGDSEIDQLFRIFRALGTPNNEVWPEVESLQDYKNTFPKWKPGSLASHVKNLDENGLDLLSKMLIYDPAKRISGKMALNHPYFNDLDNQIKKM
T1 sequence (P14635 whole entry partner, species assumed): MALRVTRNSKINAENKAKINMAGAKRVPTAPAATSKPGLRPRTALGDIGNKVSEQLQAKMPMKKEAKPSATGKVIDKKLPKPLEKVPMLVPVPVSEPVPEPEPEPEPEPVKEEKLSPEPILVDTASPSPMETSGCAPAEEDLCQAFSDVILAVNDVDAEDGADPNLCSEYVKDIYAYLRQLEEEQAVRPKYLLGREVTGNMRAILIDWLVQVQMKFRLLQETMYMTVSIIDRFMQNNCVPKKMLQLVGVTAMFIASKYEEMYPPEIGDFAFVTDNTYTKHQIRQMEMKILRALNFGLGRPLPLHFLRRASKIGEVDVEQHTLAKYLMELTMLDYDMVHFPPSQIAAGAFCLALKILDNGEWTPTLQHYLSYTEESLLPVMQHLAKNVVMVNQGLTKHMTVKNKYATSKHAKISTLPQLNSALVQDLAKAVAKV

Compound	pIC50 [1]	pIC50 [4]	other results
CC(C)c1n[nH]c2c(NCc3ccccc3O)ncnc12 [2-hydroxybenzylamino / isopropyl, 7-(2-hydroxybenzyl)amino-3-isopropylpyrazolo[4,3-d]pyrimidine]	6.40	6.57	pIC50 ([2]; Homo sapiens, K562, 72 h): 4.30; pIC50 ([3]; Homo sapiens, MCF7, 72 h): 4.20
CCc1n[nH]c2c(NCc3ccc(Cl)cc3)ncnc12 [4-chlorobenzylamino / ethyl]	4.59	4.72	
Cc1n[nH]c2c(NC3CCC(N)CC3)ncnc12 (stereo not drawn) [4-aminocyclohexylamino / methyl]			pIC50 [2]: 3.94; pIC50 [3]: 4.12
CCc1n[nH]c2c(NCc3ccco3)ncnc12 [furfurylamino / ethyl]	5.09	5.28	pIC50 ([2]; Homo sapiens, K562, 72 h): < 3.78; pIC50 ([3]; Homo sapiens, MCF7, 72 h): 3.87
COc1ccc(CNc2ncnc3c(C)n[nH]c23)cc1 [4-methoxybenzylamino / methyl]			pIC50 [2]: 4.28; pIC50 [3]: 4.46
Cc1n[nH]c2c(Nc3ccc(Br)cc3)ncnc12 [4-bromoanilino / methyl]	4.80	4.74	
Cc1n[nH]c2c(NCc3cccc(O)c3)ncnc12 [3-hydroxybenzylamino / methyl]	5.26	5.14	pIC50 ([2]; Homo sapiens, K562, 72 h): 3.84; pIC50 ([3]; Homo sapiens, MCF7, 72 h): 3.92
Cc1n[nH]c2c(Nc3ccccc3)ncnc12 [anilino / methyl]	4.66	4.68	
CCc1n[nH]c2c(Nc3ccc(C(=O)O)c(Cl)c3)ncnc12 [3-chloro-4-carboxyanilino / ethyl]	4.44	4.49	
CC(C)c1n[nH]c2c(NCc3ccccc3Br)ncnc12 [2-bromobenzylamino / isopropyl, 7-(2-bromobenzyl)amino-3-isopropylpyrazolo[4,3-d]pyrimidine]	5.15	5.05	pIC50 ([2]; Homo sapiens, K562, 72 h): 4.24; pIC50 ([3]; Homo sapiens, MCF7, 72 h): 4.38
COc1ccc(CNc2ncnc3c(C(C)C)n[nH]c23)c(O)c1			pIC50 [2]: 6.30; pIC50 [3]: 6.70
CCc1n[nH]c2c(NCc3ccccc3)ncnc12 [benzylamino / ethyl]	4.92	4.96	pIC50 ([2]; Homo sapiens, K562, 72 h): 4.09; pIC50 ([3]; Homo sapiens, MCF7, 72 h): 4.21
Cc1n[nH]c2c(Nc3ccc(C(=O)O)c(Cl)c3)ncnc12 [3-chloro-4-carboxyanilino / methyl]	4.60	4.55	
CCc1n[nH]c2c(NCC=C(C)C)ncnc12 [isopentenylamino / ethyl]	4.35	4.39	
CCc1n[nH]c2c(Nc3ccc(Br)cc3)ncnc12 [4-bromoanilino / ethyl]	4.66	4.74	
Cc1cccc(CNc2ncnc3c(C)n[nH]c23)c1 [3-methylbenzylamino / methyl]	4.55	4.51	
C=CCNc1ncnc2c(C)n[nH]c12 [allylamino / methyl]	4.38	4.32	
CCc1n[nH]c2c(NCc3ccc(OC)c(O)c3)ncnc12 [3-hydroxy-4-methoxybenzylamino / ethyl]			pIC50 [2]: 4.14; pIC50 [3]: 4.28
Cc1n[nH]c2c(NC3CCCCC3)ncnc12 [cyclohexylamino / methyl]	4.47	4.49	
Cc1n[nH]c2c(NCc3cccc(Cl)c3)ncnc12 [3-chlorobenzylamino / methyl]	5.06	5.03	

Compound	pIC50 [1]	pIC50 [4]	other results
CCCCCNc1ncnc2c(CC)n[nH]c12 [pentylamino / ethyl]			pIC50 [2]: 4.21; pIC50 [3]: 4.39
Cc1n[nH]c2c(Nc3ccc(Cl)cc3)ncnc12 [4-chloroanilino / methyl]	4.59	4.55	
COc1ccc(CNc2ncnc3c(C(C)C)n[nH]c23)cc1O [7-(3-hydroxy-4-methoxybenzyl)amino-3-isopropylpyrazolo[4,3d]pyrimidine]	6.05		pIC50 [2]: 4.17; pIC50 [3]: 4.35; pIC50 ([4]; read-out: CDK2 IC50, 15 μM ATP, histone H1, 30° C.): 6.70
CCc1n[nH]c2c(Nc3ccc(N)c(Cl)c3)ncnc12 [3-chloro-4-aminoanilino / ethyl]	4.46	4.55	
Cc1ccccc1CNc1ncnc2c(C)n[nH]c12 [2-methylbenzylamino / methyl]	4.74	4.77	
Cc1n[nH]c2c(NC3CCCC3)ncnc12 [cyclopentylamino / methyl]	4.54	4.34	
Cc1n[nH]c2c(Nc3ccc(Cl)c(C(=O)O)c3)ncnc12 [3-carboxy-4-chloroanilino / methyl]	4.62	4.54	
CC(C)c1n[nH]c2c(Nc3ccc(O)c(C(=O)O)c3)ncnc12 [3-carboxy-4-hydroxyanilino / isopropyl]	5.51	5.38	pIC50 ([2]; Homo sapiens, K562, 72 h): 4.60; pIC50 ([3]; Homo sapiens, MCF7, 72 h): 4.92
CCc1n[nH]c2c(NC3CCCC3)ncnc12 [cyclopentylamino / ethyl]	4.49	4.49	
Cc1n[nH]c2c(NCc3ccccc3O)ncnc12 [2-hydroxybenzylamino / methyl]	5.40	5.28	pIC50 ([2]; Homo sapiens, K562, 72 h): 4.26; pIC50 ([3]; Homo sapiens, MCF7, 72 h): 4.17
Cc1n[nH]c2c(NCc3ccccc3Br)ncnc12 [2-bromobenzylamino / methyl]			pIC50 [2]: 4.17; pIC50 [3]: 4.25
CCc1n[nH]c2c(NCc3ccc(OC)cc3)ncnc12 [4-methoxybenzylamino / ethyl]			pIC50 [2]: 4.32; pIC50 [3]: 4.51
CCc1n[nH]c2c(NC3CCCCC3)ncnc12 [cyclohexylamino / ethyl]	4.41	4.38	
CCc1n[nH]c2c(Nc3ccccc3)ncnc12 [anilino / ethyl]	4.85	4.70	
Cc1n[nH]c2c(Nc3cc(N)cc(Cl)c3)ncnc12 [3-chloro-5-aminoanilino / methyl]	4.72	4.62	
Cc1n[nH]c2c(Nc3ccc(Cl)c(N)c3)ncnc12 [3-amino-4-chloroanilino / methyl]	4.57	4.55	
Cc1n[nH]c2c(NCc3ccc(O)cc3)ncnc12 [4-hydroxybenzylamino / methyl]			pIC50 [2]: < 3.78; pIC50 [3]: < 3.78
Cc1n[nH]c2c(NCc3ccccc3)ncnc12 [benzylamino / methyl]			pIC50 [2]: 4.54; pIC50 [3]: 4.17
CCCCCNc1ncnc2c(C)n[nH]c12 [pentylamino / methyl]			pIC50 [2]: 4.17; pIC50 [3]: 4.35
CC(C)=CCNc1ncnc2c(C)n[nH]c12 [isopentenylamino / methyl]	4.35	4.36	

Compound	pIC50 [1]	pIC50 [4]	other results
Cc1n[nH]c2c(NCc3ccc(Cl)cc3)ncnc12 [4-chlorobenzylamino / methyl]	4.70	4.74	
CCc1n[nH]c2c(Nc3ccc(Cl)cc3)ncnc12 [4-chloroanilino / ethyl]	4.85	4.80	
CCc1n[nH]c2c(Nc3ccc(Cl)c(C(=O)O)c3)ncnc12 [3-carboxy-4-chloroanilino / ethyl]	4.42	4.40	
CCc1n[nH]c2c(NC3CCC(N)CC3)ncnc12 (stereo not drawn) [4-aminocyclohexylamino / ethyl]			pIC50 [2]: 3.96; pIC50 [3]: 4.15
CCc1n[nH]c2c(Nc3ccc(O)c(C(=O)O)c3)ncnc12 [3-carboxy-4-hydroxyanilino / ethyl]	4.62	4.66	
COc1ccc(CNc2ncnc3c(C)n[nH]c23)cc1O [3-hydroxy-4-methoxybenzylamino / methyl]			pIC50 [2]: 4.10; pIC50 [3]: 4.24
CCc1n[nH]c2c(NCc3cccc(C)c3)ncnc12 [3-methylbenzylamino / ethyl]	4.74	4.77	
C=CCNc1ncnc2c(CC)n[nH]c12 [allylamino / ethyl]	4.60	4.54	
CC(C)c1n[nH]c2c(NCc3ccccc3N)ncnc12 [2-aminobenzylamino / isopropyl]			pIC50 [2]: 5.68; pIC50 [3]: 6.10
CCc1n[nH]c2c(NCc3cccc(Cl)c3)ncnc12 [3-chlorobenzylamino / ethyl]	5.01	4.99	
CCc1n[nH]c2c(Nc3ccc(Cl)c(N)c3)ncnc12 [3-amino-4-chloroanilino / ethyl]	4.64	4.66	
CCc1n[nH]c2c(Nc3cc(N)cc(Cl)c3)ncnc12 [3-chloro-5-aminoanilino / ethyl]	4.70	4.81	
COc1cccc(CNc2ncnc3c(C(C)C)n[nH]c23)c1O			pIC50 [2]: 6.10; pIC50 [3]: 6.22
CCc1n[nH]c2c(NCc3ccccc3C)ncnc12 [2-methylbenzylamino / ethyl]	4.82	4.85	
CCc1n[nH]c2c(NCc3ccccc3Cl)ncnc12 [2-chlorobenzylamino / ethyl]	4.92	4.92	
Cc1n[nH]c2c(Nc3ccc(O)c(C(=O)O)c3)ncnc12 [3-carboxy-4-hydroxyanilino / methyl]	4.47	4.40	
COc1ccc(O)c(CNc2ncnc3c(C(C)C)n[nH]c23)c1			pIC50 [2]: 5.92; pIC50 [3]: 6.05
CCc1n[nH]c2c(NCc3ccccc3Br)ncnc12 [2-bromobenzylamino / ethyl]			pIC50 [2]: 4.22; pIC50 [3]: 4.27
